Source: patent publication US20080268535A1, “Method for Inducing the Differentiation of Human Myelogenous Leukemia Cells Into Megakarocytes or Thrombocytes” (EWHA University - Industry Collaboration Foundation, priority 2005, published 2008)
“Also recorded” adds a separate entry of the source.

How the values were obtained:
Format in all cases: cell-based, human
HEL cells [1] = assay: Differentiation inductivity, lineage receptor expression by FACS, HEL cells; conditions: 5 μg/ml (R)-NALPCE 5 days or 10 nM PMA 3 days
Procedure: HEL cells were aliquoted at a density of 3×10^5 cells per well in 6-well plates and treated separately with 5 μg/ml of (R)-NALPCE and 10 nM of 12-phorbol myristate-13-acetate (PMA) (Calbiochem.), followed by incubation for 5 and 3 days, respectively. After centrifugation (1,000 rpm, 10 min), cell pellets thus obtained were washed three times with 0.01% bovine serum albumin (BSA) in PBS and incubated with 10 μl of anti-CD61-fluorescein-5-isothiocyanate (FITC) (Dako Chemicals, Carpenteria, Calif.), 20 μl of anti-CD16-Cy-Chrome (Cy) (BD Pharmingen), 10 μl of anti-glycophorin ACD235a-phycoerythrin (PE) (Dako Chemicals, Carpenteria, Calif.), and 20 μl of anti-CD14-allophycocyanin (APC) (BD Pharmingen) in 200 μl of 0.01% bovine serum albumin (BSA)-PBS at 4° C. for 50 min with spinning so as to achieve homogenous fluorescent staining over the cells. After centrifugation (1,000 rpm, 10 min), the cell pellets thus obtained were washed three times with 0.01% bovine serum albumin (BSA) in PBS. Fluorescence was analyzed on a fluorescence-activated cell sorter (FACS) (Aria) using a Cellquest program.

K562 cells [2] = assay: Differentiation inductivity, lineage receptor expression by FACS, K562 cells
Procedure: K562 cells were aliquoted at a density of 2×10^5 per well in 6-well plates and treated with 40 μg/ml of (R)-NALPCE or 30 nM of PMA (12-phorbol myristate-13-acetate, Calbiochem.), followed by incubation for 4 days. After centrifugation (1,000 rpm, 10 min), the cell pellets thus obtained were washed three times with 0.01% bovine serum albumin (BSA) in PBS. The cells were incubated with 10 μl of anti-CD41-fluorescein-5-isothiocyanate (FITC) (Dako Chemicals, Carpenteria, Calif.), 20 μl of anti-CD16-Cy-Chrome (Cy) (BD Pharmingen), 10 μl of anti-glycophorin ACD235a-phycoerythrin (PE) (Dako Chemicals, Carpenteria, Calif.), and 20 μl of anti-CD14-allophycocyanin (APC) (BD Pharmingen) in 200 μl of 0.01% bovine serum albumin (BSA)-PBS at 4° C. for 50 min while spinning to realize homogeneous fluorescent staining. After centrifugation (1,000 rpm, 10 min), the cell pellets thus obtained were washed three times with 0.01% bovine serum albumin (BSA) in PBS. Fluorescence was analyzed on a fluorescence-activated cell sorter (FACS) (Aria) using a Cellquest program.

HEL cells [3] = assay: Cell differentiation of HEL cells, optical microscopy; conditions: 5 μg/ml (R)-NALPCE, 10 nmole PMA or 50 ng/ml TPO, 5 days
Procedure: HEL cells were aliquoted at a density of 3×10^5 cells per well in 6-well plates and treated with 5 μg/ml of (R)-NALPCE, 10 nmole of PMA, or 50 ng/ml of TPO, followed by incubation in a day-dependent manner for 5 days. They were observed under an optical microscope with 200× magnification.

K562 cells [4] = assay: Cell differentiation of K562 cells on OP9 cells, optical microscopy; conditions: for cell morphology (optical microscope): 5 days
Procedure: A stromal line of OP9 cells derived from […] was aliquoted at a density of 1×10^5 cells in 6-well plates and incubated for 24 hrs. After the OP9 cells were uniformly attached onto the bottom of the plates, K562 cells were layered at a density of 1×10^5 cells on the OP9 cells in 6-well plates. The cells were treated with 40 μg/ml of (R)-NALPCE, or 500 pmole, 10 nmole or 50 nmole of PMA before incubation for 5 days. They were observed under an optical microscope with 200× magnification.

| Compound | expression of CD61, CD235a, CD16 and CD14 receptors (HEL cells [1]) | expression of CD41, CD16, glycophorin A and CD14 receptors (K562 cells [2]; K562 cells, 40 μg/ml (R)-NALPCE or 30 nM PMA, 4 days) | number of cells expressing CD41, PMA versus (R)-NALPCE (K562 cells [2]; leukemia cells derived from human bone marrow, without OP9 cells) | cell morphology (optical microscope) (HEL cells [3]) | production or secretion of thrombocytes by differentiated megakaryocytes (K562 cells [4]; (R)-NALPCE with OP9 cells, PMA treatment) | cell morphology (optical microscope) (K562 cells [4]; K562 cells on OP9 cells, 500 pmole of PMA) | cell morphology (optical microscope) (K562 cells [4]; K562 cells on OP9 cells, 10 nmole of PMA) | thrombocyte-like morphology (K562 cells [4]; K562 cells on OP9 cells, 10 nmole of PMA, 5 days or more after treatment) | cell morphology (optical microscope) (K562 cells [4]; K562 cells on OP9 cells, 50 nmole of PMA) |
| --- | --- | --- | --- | --- | --- | --- | --- | --- | --- |
| CCCCCCCCCCCCCC(=O)O[C@@H]1[C@@H](C)[C@@]2(O)[C@@H](C=C(CO)C[C@]3(O)C(=O)C(C)=C[C@@H]23)[C@@H]2C(C)(C)[C@]12OC(C)=O [PMA, phorbol 12-myristate 13-acetate] | CD61 (megakaryocyte-specific receptor), CD16 (neutrophil-specific receptor), and CD14 (monocyte-specific receptor) were expressed, particularly with a great increase of CD61 | CD41 (megakaryocyte-specific receptor), CD16 (neutrophil-specific receptor), CD14 (monocyte-specific receptor) were expressed, particularly with a great increase of CD41 | increased in number more in a medium containing PMA than in a medium containing (R)-NALPCE | increased in size, but with morphology different from that upon treatment with (R)-NALPCE, and differentiated into macrophages | could not secrete thrombocytes; also recorded: could not produce thrombocyte-like cells | did not differentiate, but proliferated, like a control | increase in size, but with morphology different from that of those treated with (R)-NALPCE | no morphology similar to thrombocytes was observed | differentiate into macrophages |
| TPO: TPO, comparison agent applied at 50 ng/ml to HEL cells; abbreviation not expanded in the text | – | – | – | did not undergo significant change | – | – | – | – | – |
